pIC50: −log10 of the molar value. ≈ marks a conversion by molar mass, not a printed value.
tested on: not listed separately; test: Microsomal stability in human liver microsomes; format: in vitro ADME; settings: 0 min
Experimental: Microsomal stability in vitro in different biologic media (liver microsomes, S9 fraction, hepatocytes) and species is ascertained to evaluate the rate at which a compound undergoes metabolism in the experimental in vitro conditions. Results for some compounds of the invention after a 60 minutes incubation period in human liver microsomes are shown in the Table 6 below. […] Experimental conditions are briefly described here: the stability in human liver microsomes of several compounds was done over […] at 37° C. using pooled mixed gender human liver microsomes. These liver microsomes were prepared at 1.0 mg/ml of microsomal protein in a 100 mM potassium phosphate pH 7.4 buffer with 1 mM NADPH. The media was incubated at 37° C. with the compound in solution in DMSO. The concentration of the compound was followed by LC/MS-MS as a function of time. Samples were assayed at t=0, 15, 30, and 60 minutes. Testosterone was used as a positive control. The same experiment was performed with mouse, rat or dog liver microsomes instead of human liver microsomes.

HLM, Mean metabolized (%)	Compound
0.0	COc1cccc(C(=O)c2cc3c(cc(F)c4ccccc43)[nH]2)c1 [ACT-PFK-116, (5-Fluoro-3H-benzo[e]indol-2-yl)-(3-methoxy-phenyl)-methanone]

same assay, conditions: 60 min incubation, 1.0 mg/ml microsomal protein, 1 mM NADPH, 37° C.

HLM, Mean metabolized (%)	Compound
45.8	COc1cccc(C(=O)c2cc3c(cc(F)c4ccccc43)[nH]2)c1 [ACT-PFK-116, (5-Fluoro-3H-benzo[e]indol-2-yl)-(3-methoxy-phenyl)-methanone]

target: T1, PFKFB3 (Homo sapiens, UniProt Q16875); test: Inhibition of recombinant PFKFB3 kinase activity (ADP Glow assay); format: biochemical; settings: 250 nM analog concentration; read-out: % Inhibition of PFKFB3 Enzymatic Activity
T1 construct: GST
T1 sequence (Q16875 whole entry, species assumed): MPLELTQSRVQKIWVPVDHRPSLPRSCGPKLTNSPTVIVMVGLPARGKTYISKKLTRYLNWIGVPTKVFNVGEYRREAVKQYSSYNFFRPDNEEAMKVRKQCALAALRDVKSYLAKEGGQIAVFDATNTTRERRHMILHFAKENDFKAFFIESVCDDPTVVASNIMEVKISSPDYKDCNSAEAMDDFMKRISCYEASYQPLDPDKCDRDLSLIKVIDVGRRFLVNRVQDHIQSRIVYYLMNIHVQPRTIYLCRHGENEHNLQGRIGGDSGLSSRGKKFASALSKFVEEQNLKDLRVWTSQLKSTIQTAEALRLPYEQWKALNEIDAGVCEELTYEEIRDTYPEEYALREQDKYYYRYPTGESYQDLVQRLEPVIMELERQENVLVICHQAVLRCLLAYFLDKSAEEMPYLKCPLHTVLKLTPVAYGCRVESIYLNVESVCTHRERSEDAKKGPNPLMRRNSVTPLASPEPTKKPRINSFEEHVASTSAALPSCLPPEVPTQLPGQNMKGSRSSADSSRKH
Experimental: PFKFB3 was prepared by expression in E. coli and purified by GST column and column chromatography. […] The recombinant protein was pure and active as determined by the results of a kinase activity assay commercially available (such as ADP Glow® assay, […]). The same assay was used to determine the inhibition of the protein and the results are shown in Table 5 below (IC50 values or percent inhibition at a fixed concentration). Results confirmed that the compounds of the invention have low nanomolar IC50 values, interacting with PFKFB3 and inhibiting its enzymatic activity.

inhibition at 0.25 µM [%]	Compound
34.2	COc1cccc(C(=O)c2cc3c(cc(F)c4ccccc43)[nH]2)c1 [ACT-PFK-116, (5-Fluoro-3H-benzo[e]indol-2-yl)-(3-methoxy-phenyl)-methanone]

tested on: Jurkat cells; test: Inhibition of 14C-2-deoxyglucose uptake; format: cell-based; settings: Homo sapiens, 3 hours
Experimental: Inhibition of PFKFB3 results in inhibiting glycolysis. Several feedback or feedforward activation and inhibition mechanisms exist so that, by a feedback mechanism, inhibiting the activity of PFKFB3 may inhibit glucose uptake by cells. An assay was developed to determine if there was inhibition of glucose uptake following exposure to the compounds on the invention. Briefly, Jurkat cells were plated at 1×10^5/mL in RPM′ 1640 supplemented with 10% fetal bovine serum and 50 μg/mL gentamicin sulfate. Cells were immediately treated with vehicle or 5 μmol/L of the compound of the invention for 3 hours and subsequently placed in glucose-free RPMI 1640 for 30 min. ^14C-2-deoxyglucose (0.25 μCi/mL; Perkin Elmer) was added for an additional 60 min and cells were then washed three with ice-cold RPMI 1640 containing no glucose. Cell lysates were collected in 500 μL of 0.1% SDS, and scintillation counts (counts/min) were measured on 400 μL of lysate. Counts were normalized to protein concentration.

Compound	inhibition at 5 µM [%]
COc1cccc(C(=O)c2cc3c(cc(F)c4ccccc43)[nH]2)c1 [ACT-PFK-116, (5-Fluoro-3H-benzo[e]indol-2-yl)-(3-methoxy-phenyl)-methanone]	0

tested on: NCI-H82; test: Cancer cell proliferation, Alamar Blue assay, 72 hours; format: cell-based; settings: Homo sapiens, NCI-H82, read-out: IC50 NCl-H82
Experimental: (§1) The ability of the compounds described herein to kill or inhibit the proliferation of cancer cells was measured using either the MTT assay, or the Alamar Blue assay, or the Cell Titer Glow® assay using 48 or 72 hours exposure. […] The procedures are briefly described below. Cells of the desired tumor cell line were plated at 2×10^5 cells/ml in 96 well plates. Twice the indicated concentrations of the compounds of the invention were added to cells the following day in an equal volume of media. 72 hours later, cells were lysed and subjected to ATP determination using the CellTiter Glo-Luminescent Cell Viability Assay kit (Promega, Madison, Wis.). Experiments were done in triplicate. When using the MTT assay or the Alamar blue assay, the experimental conditions are essentially similar; at the end of the incubation period, 20 microliters of the MTT solution is added per well and the samples are incubated for an additional four hours, rinsed, and the absorbance at 570 nm measured. […] Table 2 lists the IC50 values for the compounds of the invention in several cell lines including Jurkat, Calu-6, NCI-H82, U937, HCT-116, and MDA-MB-231 cancer cell lines.

pIC50	Compound
6.69	COc1cccc(C(=O)c2cc3c(cc(F)c4ccccc43)[nH]2)c1 [ACT-PFK-116, (5-Fluoro-3H-benzo[e]indol-2-yl)-(3-methoxy-phenyl)-methanone]

tested on: Calu-6; test: as above; format: cell-based; settings: Homo sapiens, Calu-6
Experimental: as §1

pIC50	Compound
7.10	COc1cccc(C(=O)c2cc3c(cc(F)c4ccccc43)[nH]2)c1 [ACT-PFK-116, (5-Fluoro-3H-benzo[e]indol-2-yl)-(3-methoxy-phenyl)-methanone]

tested on: MDA-MB-231; test: as above; format: cell-based; settings: Homo sapiens
Experimental: as §1

pIC50	Compound
6.25	COc1cccc(C(=O)c2cc3c(cc(F)c4ccccc43)[nH]2)c1 [ACT-PFK-116, (5-Fluoro-3H-benzo[e]indol-2-yl)-(3-methoxy-phenyl)-methanone]

tested on: Jurkat; test: as above; format: cell-based; settings: Homo sapiens, Jurkat
Experimental: as §1

pIC50	Compound
6.90	COc1cccc(C(=O)c2cc3c(cc(F)c4ccccc43)[nH]2)c1 [ACT-PFK-116, (5-Fluoro-3H-benzo[e]indol-2-yl)-(3-methoxy-phenyl)-methanone]

tested on: HCT-116; test: as above; format: cell-based; settings: Homo sapiens, HCT-116
Experimental: as §1

pIC50	Compound
6.63	COc1cccc(C(=O)c2cc3c(cc(F)c4ccccc43)[nH]2)c1 [ACT-PFK-116, (5-Fluoro-3H-benzo[e]indol-2-yl)-(3-methoxy-phenyl)-methanone]

tested on: U937; test: as above; format: cell-based; settings: Homo sapiens, U-937
Experimental: as §1

pIC50	Compound
7.52	COc1cccc(C(=O)c2cc3c(cc(F)c4ccccc43)[nH]2)c1 [ACT-PFK-116, (5-Fluoro-3H-benzo[e]indol-2-yl)-(3-methoxy-phenyl)-methanone]

tested on: not listed separately; test: Solubility in solvents and excipients, 1 hour at room temperature, HPLC; format: physicochemical; settings: aqueous with cosolvent or surfactant or cyclodextrin, thermodynamic from solid; Cre:EtOH:Saline 5:5:90 mixture, 1 hour at room temperature; read-out: Solubility Cre:EtOH:Saline
Experimental: Chemical properties of the compounds of the invention were investigated, including the solubility in several solvents and pharmaceutically accepted excipients. […] Briefly, selected compounds of the invention are dissolved in a small volume of the solvents/excipients of interest at room temperature over 1 hour in typically 1 ml and the concentration is measured by HPLC after filtration.

solubility at 1 h [µg/mL]	Compound
700 (≈ 2.19 mM)	COc1cccc(C(=O)c2cc3c(cc(F)c4ccccc43)[nH]2)c1 [ACT-PFK-116, (5-Fluoro-3H-benzo[e]indol-2-yl)-(3-methoxy-phenyl)-methanone]

same assay, conditions: ethanol, organic solvent or mixture, thermodynamic from solid; EtOH, 1 hour at room temperature; read-out: Solubility EtOH

solubility at 1 h [µg/mL]	Compound
1300 (≈ 4.07 mM)	COc1cccc(C(=O)c2cc3c(cc(F)c4ccccc43)[nH]2)c1 [ACT-PFK-116, (5-Fluoro-3H-benzo[e]indol-2-yl)-(3-methoxy-phenyl)-methanone]

same assay, conditions: organic solvent or mixture, thermodynamic from solid; 1:1 cremophor EL-P:ethanol mixture, 1 hour at room temperature; read-out: Solubility Cre:EtOH

solubility at 1 h [µg/mL]	Compound
8600 (≈ 26.9 mM)	COc1cccc(C(=O)c2cc3c(cc(F)c4ccccc43)[nH]2)c1 [ACT-PFK-116, (5-Fluoro-3H-benzo[e]indol-2-yl)-(3-methoxy-phenyl)-methanone]

same assay, conditions: organic solvent or mixture, thermodynamic from solid; Acetone, 1 hour at room temperature; read-out: Solubility Acetone

solubility at 1 h [µg/mL]	Compound
6200 (≈ 19.4 mM)	COc1cccc(C(=O)c2cc3c(cc(F)c4ccccc43)[nH]2)c1 [ACT-PFK-116, (5-Fluoro-3H-benzo[e]indol-2-yl)-(3-methoxy-phenyl)-methanone]

same assay, conditions: organic solvent or mixture, thermodynamic from solid; Cremophor, 1 hour at room temperature; read-out: Solubility Cremophor

solubility at 1 h [µg/mL]	Compound
14400 (≈ 45.1 mM)	COc1cccc(C(=O)c2cc3c(cc(F)c4ccccc43)[nH]2)c1 [ACT-PFK-116, (5-Fluoro-3H-benzo[e]indol-2-yl)-(3-methoxy-phenyl)-methanone]

same assay, conditions: organic solvent or mixture, thermodynamic from solid; DCM, 1 hour at room temperature; read-out: Solubility DCM

solubility at 1 h [µg/mL]	Compound
6000 (≈ 18.8 mM)	COc1cccc(C(=O)c2cc3c(cc(F)c4ccccc43)[nH]2)c1 [ACT-PFK-116, (5-Fluoro-3H-benzo[e]indol-2-yl)-(3-methoxy-phenyl)-methanone]

same assay, conditions: organic solvent or mixture, thermodynamic from solid; Tween 80, 1 hour at room temperature; read-out: Solubility Tween 80

solubility at 1 h [µg/mL]	Compound
15500 (≈ 48.5 mM)	COc1cccc(C(=O)c2cc3c(cc(F)c4ccccc43)[nH]2)c1 [ACT-PFK-116, (5-Fluoro-3H-benzo[e]indol-2-yl)-(3-methoxy-phenyl)-methanone]

same assay, conditions: organic solvent or mixture, thermodynamic from solid; Tween80:EtOH 6:4 mixture, 1 hour at room temperature; read-out: Solubility Twee80:EtOH

solubility at 1 h [µg/mL]	Compound
10200 (≈ 31.9 mM)	COc1cccc(C(=O)c2cc3c(cc(F)c4ccccc43)[nH]2)c1 [ACT-PFK-116, (5-Fluoro-3H-benzo[e]indol-2-yl)-(3-methoxy-phenyl)-methanone]
